Turning to `COc1cccc(OC(c2ccccc2)C(O)C(=O)NC(C)C)c1` (stereo not given), the melting point (commonly the temperature of the solid-liquid transition) was 118 to 120 °C. For `O=C(O)c1cccc(C(CCc2ccc(Cl)cc2)CC(=O)c2ccccc2)c1` (stereo not given), the melting point was in the range of 93 to 95 °C. With `COC(=O)c1nn(-c2ccc(CBr)cc2)nc1C`, the melting point was 122 to 125 °C. Then `CCOc1ccc2[nH]c3c([N+](=O)[O-])cc([N+](=O)[O-])c(Cl)c3c(=O)c2c1`, with 238 to 241 °C; and `CC(C)(C)[Si](C)(C)Oc1ccc2c(N3C(=O)c4ccccc4C3=O)n[nH]c2c1`, with 207 to 209 °C; and `Cc1nn(C)c2c(=O)n(C)c(C)nc12`, with 190 to 192 °C. `CN(C)C1(c2ccccc2)CCC(CNC(=O)N2CCCC(c3c[nH]c4ccccc34)C2)CC1` (stereo not given): the melting point was 95 to 99 °C. In turn, `CCCCCCCCCCCCC(OC)C1=CC(=O)OC1O` (stereo not given) gave a melting point of 53 to 54 °C. Regarding `Nc1ccc(CNC(=O)OCc2ccccc2)cc1`, the melting point was in the range of 60 to 64 °C. For `COc1ccc(-c2ccc3c(n2)[nH]c2ccccc23)cc1`, the melting point was over 220 °C. Consider `CCCCC1N=C(Cl)/C(=C2\C(=O)Nc3ccccc32)N1Cc1ccc(C(=O)O)cc1` (stereo not given), for which the melting point fell in the range of 241 to 242 °C. As for `Cc1c(N2C[C@H](CF)[C@](C)(N)C2)c(F)cc2c(=O)c(C(=O)O)cn([C@@H]3C[C@@H]3F)c12`, the melting point was 135 to 137 °C. `CN1CCN(c2cccc(Nc3ccc(-c4ccoc4)cc3N)c2)CC1` registered a melting point of 129 to 130 °C.

Consider `[N-]=[N+]=NCC1CN(c2ccc(SC(c3ccccc3)(c3ccccc3)c3ccccc3)c(F)c2)C(=O)O1` (stereo not given), for which the melting point lay within 77 to 79 °C. The compound `CN1CCC(Sc2ccc3[nH]c(=O)[nH]c3c2)CC1` had a melting point of 214 to 215 °C.

On to `O=C(c1ccc(Cl)cc1)c1cnc2ccc(Cl)cc2c1Cl`, for which the melting point is 170 °C. In the case of `C#CCn1c(C(F)(F)F)c(C(O)C#C)c2ccccc21` (racemic), the melting point turned out to be 98 °C. Then `Cc1cc(C(N)=O)ncc1C(c1c(F)ccc(F)c1F)S(=O)(=O)CCCO` (stereo not given), with 148 to 150 °C; and `COc1cc(N)c(Cl)cc1Cn1nc(-c2ccc(Cl)c(Cl)c2)oc1=O`, with 196 to 198 °C; and `CC(Cl)CNc1cccc(C(N)=O)c1` (stereo not given), with 193 to 194 °C. Then `CCCCCCCCCCCCc1cc2ccc(C(=O)OCC)cc2[nH]1`, with 83 to 86 °C. `O=C(O)CCCc1ccc2c(c1)CCC2` had a melting point of 57 to 58 °C. On to `COc1cc2c(cc1C)CCN=C2C1(c2ccsc2)CC1`, for which the melting point fell in the range of 116 to 118 °C.

For the compound `CCOC(=O)c1oc(Br)nc1C`, the melting point is 94.5 to 95.5 °C. `Cc1nc2cc3c(nc2o1)C(=O)OC3=O` returned a melting point of 194 to 196 °C.

Compound `CCOC(=O)C(=CNc1ccc(F)c(F)c1OCC(C)OS(=O)(=O)c1ccc(C)cc1)C(=O)OCC` (stereo not given) yielded a melting point of 61 to 62 °C. The compound `OCCNC(=S)NC(Cc1cccc2ccccc12)=Nc1ccccc1` registered a melting point of 155 to 156 °C. For `CCOC(=O)C(C)(C)n1c(=O)[nH]c2ccc(C)cc2c1=O`, the melting point is 156 to 157 °C. Turning to `CCc1cccc(Sc2ccccc2)c1NC(=O)CC1c2ccccc2Oc2ccccc21`, the melting point is 237 to 239 °C. For the compound `COc1cccc2c(N3CCN(C[C@H]4COc5ccc6nc(C)ccc6c5O4)CC3)coc12`, the melting point is 56 °C. Turning to `Nc1ncc(S(=O)(=O)Nc2ccc(Br)c3c(Cl)c[nH]c23)cn1`, the melting point lay in the range of 285 to 289 °C. In turn, `CC(=O)c1cc(N)c(Cl)cc1Cl` came in with a melting point of 74 °C. `O=C1c2ccccc2C(=O)C1(O)c1cc(F)ccc1O` registered a melting point of 189 to 193 °C. Turning to `O=C(O)C(CCCCCCCCCCCC(C(=O)O)C1CC1)C1CC1` (stereo not given), the melting point lay within 115 to 118 °C. Next, `O=C(O)CCc1[nH]c2cc(Cl)cc(Cl)c2c1Br`: 228 °C.

Compound `CCOC(=O)c1cn(CC)c2cc(C3CCCCC3)c(OC)cc2c1=O` yielded a melting point of 154 to 156 °C. On to `CCNC(CC)CCOc1ccc(-c2ccc(C(=O)O)cc2)cc1-c1ccc2c(c1)C(C)(C)CCC2(C)C` (stereo not given), for which the melting point was determined as 195 °C. Take `CC(C)(C)OC(=O)NC(CC1=CC(=O)NC1=O)C(=O)OC(C)(C)C` (stereo not given): the melting point lay within 104 to 105 °C.

Consider `CCOC(=O)c1c(C)cc(NC(C)=O)c(C(=O)O)c1C`, for which the melting point fell in the range of 170 to 171 °C. For `CCOc1cc(C=C2CCN(C(N)=O)C2=O)ccc1O`, the melting point fell in the range of 204 to 205 °C. Next, `C=CCc1c(O)cc(OC)cc1C(=O)O`: 120 to 122 °C; `COc1cc(C(C)=O)ccc1OCCCCN1C2CCC1CC(c1n[nH]c3cc(F)ccc13)C2` (stereo not given): 148 to 149 °C; `CCOC(=O)c1oc(-c2ccc(Cl)cc2)cc(=O)c1Br`: 146 to 149 °C.

`COc1c(OCc2ccc(-c3ccccc3S(=O)(=O)Nc3onc(C)c3C)c(COCCF)c2)cc(C)nc1C`: the melting point is 90 to 95 °C. `O=c1ccn(CCO)c(C(O)c2ccc(F)cc2)c1O` (stereo not given) came in with a melting point of 187 to 188 °C. Take `Cc1ccc(N2C(=O)C(O)=C(C(=O)c3ccc(-c4ccccn4)cc3)C2c2ccc(OC(F)(F)F)cc2)nn1` (stereo not given): the melting point was in the range of 247 to 249 °C. In turn, `Oc1ccc(C2CC(c3ccccc3)=NN2c2ccccc2)cc1` (stereo not given) came in with a melting point of 144 to 145 °C. Next, `CC(=O)c1ccc(CNC(=O)C(F)(F)F)s1`: 83 to 84 °C; `Cc1cc(Cc2cnc(NCCCN(Cc3ccccc3)c3ccccn3)[nH]c2=O)cnc1C`: 95 to 99 °C; `CC(=O)C1CC2CCC1(COC(=O)Oc1ccccc1)CC2` (stereo not given): 74 to 75 °C. Then `O=C(CC(F)=C(F)F)Nc1cccc(C(=O)O)c1`, with 252 to 255 °C. Next, `CCc1ccc(SCCC(=O)O)cc1`: 59 to 60 °C; `COC(CNC(=O)c1cccc(C(=O)NCC(OC)OC)c1)OC`: 76.5 to 78 °C. `O=C(O)CC(c1ccc(OCc2ccc3ccccc3n2)cc1)c1ccc(OCc2ccc3ccccc3n2)cc1` came in with a melting point of 94 to 111 °C.

In turn, `COc1ccc(CN(C)CC=CCc2ccc(NC(=O)c3cccc4c(=O)c5ccccc5[nH]c34)cc2)cc1OC` showed a melting point of 140 °C. `Cc1nnc(S(=O)c2c(C)cccc2C)o1` (stereo not given) displayed a melting point of 79 to 80 °C. As for `COC(=O)Oc1c(OC)c(OC)c(OC(=O)OC)c2ccccc12`, the melting point is 53 to 54 °C. Next, `COc1cc2c(cc1Br)CC(C)NN=C2c1ccc([N+](=O)[O-])cc1` (stereo not given): 172 to 174 °C; `COC(=O)CCCCNC(=NC(=O)OCc1ccccc1)NC(=O)OCc1ccccc1`: 36 to 39 °C. Next, `c1ccc(C(Sc2nc3ccccc3[nH]2)(c2ccccc2)c2ccccc2)cc1`: 256 °C; `c1coc(-c2nc(COc3ccc(CCCn4ccnc4)cc3)co2)c1`: 92 to 93 °C; `COc1ccccc1N1CCN(C(=O)c2ccccc2C(c2ccc(O)cc2)c2ccc(O)cc2)CC1`: 229 to 231 °C. Turning to `O=C(O)c1ccc(NC(=O)C(c2ccc(Cl)cc2)c2ccc(Cl)cc2)cc1`, the melting point was 272 to 274 °C. Consider `COc1cc(OC)c2c(c1)c(C(=O)C(=O)NC1=CC(=O)OC1)cn2Cc1ccc(Cl)cc1`, for which the melting point was in the range of 280 to 282 °C. Next, `NC(=NO)c1c(C(F)(F)F)ccc(F)c1F`: 114 to 115 °C; `CN1CCC(Oc2ccccc2C(N)=O)C1` (stereo not given): 116 to 118 °C. With `CCn1c(=O)c2c(nc(/C=C/c3cc(OC)c4c(c3)OCO4)n2C)n(CC)c1=O`, the melting point turned out to be 202 °C.

The compound `CCOC(=O)C(=CNc1ncnc2ccc(N(C(=O)CC(C)(C)C)C(=O)CC(C)(C)C)cc12)C(=O)OCC` registered a melting point of 100 to 102 °C. Then `COc1ccc(-c2[nH]nc3c2C(=O)c2c(NC(=O)Cc4ccccc4Cl)cccc2-3)cc1`, with 300 °C. In the case of `CC(=O)Nc1ccccc1-c1ccc(F)cc1`, the melting point lay in the range of 123 to 124 °C.

In turn, `COC(=O)C(O)NC(=O)OC(C)(C)C` (stereo not given) yielded a melting point of 96 to 97 °C. As for `CCOC(=O)N1CCC(=C2c3ccccc3C=Cc3ccccc32)CC1`, the melting point was 123 to 124 °C.

In the case of `CCOC(=O)C(Cc1cc2cccnc2n(-c2cccc([N+](=O)[O-])c2)c1=O)C(=O)c1ccncc1` (stereo not given), the melting point lay in the range of 72 to 73 °C. The compound `CCCO[C@@H](C)C(=O)Oc1ccc(-c2ccc(O)cc2)cc1` showed a melting point of 120 °C. On to `CC(C)(C)c1cccc2c1C(=O)NS2(=O)=O`, for which the melting point is 185 to 187 °C. In turn, `CCCc1c(CSc2nnc(N)s2)ccc(C(C)=O)c1O` gave a melting point of 143 to 147 °C. As to `CC1(C)C(=O)C(C)(C)c2cc(CCN3CCN(c4nsc5ccccc45)CC3)ccc21`, the melting point was 122 to 126 °C. Consider `CCOc1cc(=O)oc2cc(C)ccc12`, for which the melting point was in the range of 142 to 143 °C.

With `CC(=O)N1C(=O)c2cccnc2N(C2CC2)c2nc(Cl)cc(C)c21`, the melting point lay within 204 to 206 °C.

Compound `NC(=O)N(O)Cc1sccc1Sc1ccc(F)cc1` yielded a melting point of 101 to 103 °C. For the compound `CCN(C(=O)OC)c1c(C(=O)c2cnoc2C2CC2)ccc(S(C)(=O)=O)c1Cl`, the melting point was 128 to 131 °C. Then `NC(=O)c1ccc(NC2CCCN(Cc3ccccc3)C2)cc1` (stereo not given), with 158 to 160 °C. With `OC(CCN1CCN(c2cccc(C(F)(F)F)c2)CC1)COc1ccccc1` (stereo not given), the melting point lay in the range of 83 to 84 °C. As to `Cc1cc2c(c3occ(-c4ccc(C(C)C)cc4)c13)CCC2`, the melting point was 70 to 72 °C. Next, `O=C(O)C(=O)c1ccc(OCCOCCOc2ccccc2)cc1`: 58 to 59 °C.

For the compound `CCOC(=O)c1ncn2c3ccccc3c(=O)n(C)c12`, the melting point fell in the range of 211 to 212 °C. With `C[C@]1(COC(=O)N2CCc3cc(Cl)ccc32)Cn2cc([N+](=O)[O-])nc2O1`, the melting point was 189 to 191 °C. Next, `CCOC(=O)N1CCN(c2ccc(C(=O)CCc3ccc(N)cc3)cc2)CC1`: 106 to 107 °C; `CCC(OC)c1c(Br)c(Oc2ncnc3[nH]nnc23)c(OC)c(C)c1C(C)C` (stereo not given): 149 to 150 °C; `O=C1NC(=O)C(c2ccc(F)cc2)(c2ccc(F)cc2)C(=O)N1`: 315 to 318 °C.

These data come from a melting point compilation (Tetko et al.; mined from patent text by program, amines drawn as free bases though some values may be those of a salt).
